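Values below derive from 48-hour exposures of cells grown in 96-well plates, with endpoints linearly interpolated between the two concentrations bracketing the appropriate inhibition level. The concentration for 50% growth inhibition is given as GI50.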 Active and inactive are the calls of the source. No stated cut-off is given here; in the data, active = GI50 up to about 1.1 µM and inactive = higher. Some results are limits rather than exact numbers.

These results are taken from ChEMBL document CHEMBL1201862, “PubChem BioAssay data set” (2004).

Some test systems named below: A549; NCI-H23; NCI/ADR-RES; HOP-62; SR; OVCAR-8; U-251; CCRF-CEM; OVCAR-4; HCT-15; NCI-H522; RXF 393; LOX IMVI; RPMI-8226; KM12; COLO 205; UACC-257; SK-MEL-2; SW-620; ACHN.
Common to all, as to test: growth of human tumour cells (NCI), 48 h

Take `CCOC(=O)Cn1c(C(F)(F)F)nc2nc(Cl)c(Cl)nc21`: the GI50 in the experiment on A549 was 47.8 µM (inactive); in the experiment with NCI-H23, 27 µM (inactive); in the experiment on NCI/ADR-RES it was 50.2 µM (inactive); in the experiment on HOP-62, 19.5 µM (inactive); in the experiment on SR, 24.2 µM (inactive); with OVCAR-8, 38.5 µM (inactive). Also, the GI50 with U-251 was 33.5 µM (inactive); in the experiment on CCRF-CEM, 20 µM (inactive); in the experiment on OVCAR-4, 15.2 µM (inactive); in the experiment on HCT-15 it was 37.2 µM; with NCI-H522, 20.8 µM (inactive); in the experiment on RXF 393, 27.8 µM (inactive). Also, the GI50 is 38.1 µM (inactive) in the experiment with LOX IMVI; 6.58 µM (inactive) in the experiment on RPMI-8226; 15.3 µM (inactive) in the experiment with KM12; 40 µM (inactive) in the experiment with COLO 205; 19.6 µM (inactive) in the experiment with UACC-257; 24.7 µM (inactive) with SK-MEL-2. For the same molecule, the GI50 with SW-620 was 54 µM (inactive); with ACHN, > 45.6 µM (inactive).

`CC(C)(C)c1c2c(c(C(C)(C)C)c3c1OCN(Cc1ccccc1)C3)OCN(Cc1ccccc1)C2`: the GI50 in the experiment on A549 was 17.6 µM (inactive); in the experiment on NCI-H23 it was 12.9 µM (inactive); with NCI/ADR-RES, 19.6 µM (inactive); with HOP-62 it was 18.9 µM (inactive); in the experiment on SR it was 18.9 µM (inactive); in the experiment on OVCAR-8, 26.2 µM (inactive). For the same molecule, the GI50 is 14.8 µM (inactive) with U-251; 28 µM (inactive) in the experiment on CCRF-CEM; 44.7 µM (inactive) with OVCAR-4; 16.5 µM in the experiment with HCT-15; 10.9 µM (inactive) in the experiment on NCI-H522; 14.7 µM (inactive) in the experiment on RXF 393. Moreover, the GI50 with LOX IMVI is 16.3 µM (inactive); in the experiment on RPMI-8226, 8.69 µM (inactive); in the experiment with KM12, 21.3 µM (inactive); in the experiment with COLO 205, 13.7 µM (inactive); in the experiment with UACC-257 it was 12.8 µM (inactive); with SK-MEL-2, 16.6 µM (inactive). Also, the GI50 in the experiment on SW-620 was 24.5 µM (inactive); in the experiment on ACHN, 17.8 µM (inactive).

As to `O/N=C1\CC2(N3CCOCC3)CCC1(c1ccccc1)CC2`, the GI50 in the experiment on A549, with NCI-H23, with NCI/ADR-RES, in the experiment on HOP-62, with SR and in the experiment with OVCAR-8 was > 100 µM (inactive) in each case. Besides, the GI50 with U-251 is > 100 µM (inactive); in the experiment with CCRF-CEM it was > 100 µM (inactive); with OVCAR-4, > 100 µM (inactive); with HCT-15, over 100 µM; in the experiment with NCI-H522 it was > 100 µM (inactive); in the experiment with RXF 393 it was > 100 µM (inactive). The GI50 in the experiment on LOX IMVI, in the experiment on RPMI-8226, in the experiment on KM12, with COLO 205, in the experiment with UACC-257 and with SK-MEL-2 was > 100 µM (inactive) in each case. Moreover, the GI50 with SW-620 and with ACHN was > 100 µM (inactive) each time.

As to `Nc1nc(N)c2nc(CNc3ccc(C(=O)NC(CCC(=O)O)C(=O)O)cc3F)cnc2n1` (stereo not given), the GI50 in the experiment on A549, in the experiment with NCI-H23, with NCI/ADR-RES, in the experiment with HOP-62, in the experiment on SR and in the experiment with OVCAR-8 was < 0.01 µM (active) each time. In addition, the GI50 with U-251 was < 0.01 µM (active); in the experiment with CCRF-CEM, < 0.01 µM (active); in the experiment on OVCAR-4 it was > 81.7 µM (inactive); with HCT-15, under 0.01 µM; in the experiment on NCI-H522 it was < 0.01 µM (active); in the experiment with RXF 393, > 100 µM (inactive). The GI50 in the experiment on LOX IMVI was < 0.01 µM (active); in the experiment with RPMI-8226, < 0.01 µM (active); in the experiment on KM12 it was < 0.01 µM (active); with COLO 205 it was > 48.2 µM (inactive); in the experiment on UACC-257, > 100 µM (inactive); with SK-MEL-2, > 59 µM (inactive). The GI50 in the experiment with SW-620 and in the experiment with ACHN was < 0.01 µM (active) throughout.

Consider `CCOC(=O)N1CC2(C)C=CC1C(C(=O)OC)C2` (stereo not given), for which the GI50 with A549, in the experiment with NCI-H23, in the experiment with NCI/ADR-RES, in the experiment on HOP-62, in the experiment on SR and in the experiment with OVCAR-8 was > 100 µM (inactive) each time. Also, the GI50 was > 100 µM (inactive) in the experiment with U-251; > 100 µM (inactive) in the experiment on CCRF-CEM; > 100 µM (inactive) with OVCAR-4; over 100 µM with HCT-15; > 100 µM (inactive) in the experiment with NCI-H522; > 100 µM (inactive) in the experiment on RXF 393. The GI50 in the experiment with LOX IMVI, in the experiment on RPMI-8226, in the experiment on KM12, in the experiment with COLO 205, with UACC-257 and with SK-MEL-2 was > 100 µM (inactive) in each case. Moreover, the GI50 with SW-620 and in the experiment with ACHN was > 100 µM (inactive) each time.

As to `CC1=NN2CCC(=O)N=C2S1`, the GI50 in the experiment on A549, in the experiment on NCI-H23, in the experiment with NCI/ADR-RES, in the experiment with HOP-62, in the experiment on SR and with OVCAR-8 was > 100 µM (inactive) throughout. Besides, the GI50 in the experiment on U-251 was > 100 µM (inactive); with CCRF-CEM, > 100 µM (inactive); in the experiment on OVCAR-4, > 100 µM (inactive); with HCT-15, over 100 µM; in the experiment on NCI-H522, > 100 µM (inactive); with RXF 393, > 100 µM (inactive). Also, the GI50 in the experiment with LOX IMVI, in the experiment with RPMI-8226, in the experiment with KM12, with COLO 205, with UACC-257 and with SK-MEL-2 was > 100 µM (inactive) throughout. Moreover, the GI50 in the experiment on SW-620 and in the experiment on ACHN was > 100 µM (inactive) throughout.

For the molecule `CCOC(=O)c1cccc(/N=N/c2ncc(/C=C/C(=O)OC)[nH]2)c1`, the GI50 with A549 was 24.5 µM (inactive); in the experiment with NCI-H23, 28.2 µM (inactive); with NCI/ADR-RES it was 22 µM (inactive); in the experiment with HOP-62, 16.3 µM (inactive); with SR, 4.12 µM (inactive); with OVCAR-8, 17.3 µM (inactive). In addition, the GI50 with U-251 was 22.6 µM (inactive); in the experiment on CCRF-CEM, 6 µM (inactive); in the experiment with OVCAR-4, 17.9 µM (inactive); in the experiment on HCT-15 it was 9.59 µM; in the experiment with NCI-H522 it was 15.7 µM (inactive); in the experiment on RXF 393, 29.9 µM (inactive). The GI50 with LOX IMVI is 15.3 µM (inactive); in the experiment on RPMI-8226 it was 16.3 µM (inactive); in the experiment on KM12, 23.2 µM (inactive); in the experiment with COLO 205, 18.8 µM (inactive); in the experiment with UACC-257, 16.2 µM (inactive); in the experiment with SK-MEL-2, 27.4 µM (inactive). Further, the GI50 in the experiment on SW-620 was 26.5 µM (inactive); in the experiment with ACHN, 22 µM (inactive).

For the molecule `COc1nc2c(c(=O)n1C)N(C(C)=O)C1C(N2)OCC(OC(C)=O)C1OC(C)=O` (stereo not given), the GI50 in the experiment with A549, with NCI-H23, with NCI/ADR-RES, in the experiment with HOP-62, with SR and in the experiment on OVCAR-8 was > 10 µM (inactive) throughout. In addition, the GI50 in the experiment on U-251 is > 10 µM (inactive); in the experiment with CCRF-CEM, > 10 µM (inactive); with OVCAR-4, > 10 µM (inactive); with HCT-15, over 10 µM; in the experiment with NCI-H522 it was > 10 µM (inactive); in the experiment on RXF 393, > 10 µM (inactive). The GI50 in the experiment with LOX IMVI, in the experiment with RPMI-8226, in the experiment with KM12, in the experiment with COLO 205, with UACC-257 and in the experiment on SK-MEL-2 was > 10 µM (inactive) throughout. Also, the GI50 in the experiment on SW-620 and in the experiment with ACHN was > 10 µM (inactive) each time.

Regarding `C[C@@H]1C[C@@H]2OC(=O)[C@]3(C)[C@H]2[C@@H](OC3(C)O)[C@]2(C)C(=O)C=C[C@@H]12` (stereo not given in full) [TENULIN], the GI50 was > 100 µM (inactive) with A549; 25.9 µM (inactive) with NCI-H23; > 100 µM (inactive) in the experiment on NCI/ADR-RES; 87.7 µM (inactive) with HOP-62; 5.18 µM (inactive) with SR; 32.4 µM (inactive) in the experiment with OVCAR-8. The GI50 with U-251 is 40.3 µM (inactive); in the experiment on CCRF-CEM, 4.68 µM (inactive); in the experiment with OVCAR-4 it was 10.8 µM (inactive); with HCT-15 it was 10.1 µM; in the experiment on NCI-H522 it was 6.67 µM (inactive); in the experiment on RXF 393, 18.7 µM (inactive). Besides, the GI50 in the experiment with LOX IMVI was 19.2 µM (inactive); in the experiment with RPMI-8226 it was 4.3 µM (inactive); with KM12, 23.6 µM (inactive); in the experiment on COLO 205, 14.2 µM (inactive); with UACC-257, 18 µM (inactive); with SK-MEL-2, 19.8 µM (inactive). In addition, the figures for the GI50 in the experiment on SW-620 and in the experiment with ACHN were 16.9 µM (inactive) and 19.5 µM (inactive), respectively.
